This note sets out measurements from patent US20040053822A1, “Inducing cellular immune responses to mage2/3 using peptide and nucleic acid compositions” (priority 2002, published 2004).

One assay concerns the target HLA-B*5301 (Homo sapiens, UniProt P01889, A329T/A93T/A95T/C349S/D201E/D98Y/E176V/E187L/E204Q/E69T/G107R/I218V/K202T/L105A/L119I/N104I/Q94N/R106L/R155S/R180L/S101N/S121R/S35A/S48A/T118I/V127L/V306I/V36M/Y140S/Y91F). Kind of assay: Purified HLA class I peptide binding assay, B*5301. To be noted: binding affinity, HLA-B7 supermotif-bearing peptides.
A further assay has as its target HLA-B*0702 (Homo sapiens, UniProt P01889). Briefly: Purified HLA class I peptide binding assay, B*0702. To be noted: binding affinity, HLA-B7 supermotif-bearing peptides.
For another assay, the target named is HLA-B*3501 (Homo sapiens, UniProt P01889, A329T/A93T/A95T/C349S/D201E/D98Y/E176V/E187L/E204Q/E69T/I218V/K202T/L119I/Q94N/R155S/R180L/S121R/S35A/S48A/T118I/V127L/V306I/V36M/Y140S/Y91F). Kind of assay: Purified HLA class I peptide binding assay, B*3501. To be noted: binding affinity, HLA-B7 supermotif-bearing peptides.
The next assay addresses HLA-B*5101 (B51) (Homo sapiens, UniProt P01889, A329T/A93T/A95T/C349S/D138N/D201E/D98Y/E187L/E204Q/E69T/G107R/I218V/K202T/L105A/L119W/N104I/Q94N/R106L/R155S/R180L/S101N/S121T/S35A/S48A/V306I/V36M/Y195H/Y91F). Briefly: Purified HLA class I peptide binding assay, B51. As to conditions: binding affinity, HLA-B7 supermotif-bearing peptides; read-out: B*5101 nM.
Another assay concerns the target HLA-B*5401 (Homo sapiens, UniProt P01889, A329T/C349S/D138N/D201E/E176V/E187T/E204Q/E69G/I76V/K202T/L119W/R155S/R180L/S121T/S35A/S48A/V127L/V306I/V36M/Y140L). Kind of assay: Purified HLA class I peptide binding assay, B*5401. To be noted: binding affinity, HLA-B7 supermotif-bearing peptides.

Residues, ends and D or L forms follow the SMILES beside them.

Consider `CC[C@H](C)[C@H](NC(=O)[C@@H](NC(=O)[C@@H](NC(=O)[C@H](CC(C)C)NC(=O)[C@H](CC(C)C)NC(=O)CNC(=O)[C@H](C)NC(=O)[C@H](CCCCN)NC(=O)[C@@H]1CCCN1C(=O)[C@@H](N)Cc1ccccc1)[C@@H](C)CC)[C@@H](C)CC)C(=O)O`, for which the IC50 was found to be 0.846 µM on HLA-B*5301, 0.204 µM at HLA-B*0702, 2.67 µM on HLA-B*3501 and 0.065 µM on HLA-B*5101 (B51).
As to `CC[C@H](C)[C@H](NC(=O)[C@H](Cc1ccc(O)cc1)NC(=O)[C@H](CO)NC(=O)[C@@H](NC(=O)[C@H](CCC(=O)O)NC(=O)[C@@H](NC(=O)[C@H](CC(C)C)NC(=O)[C@H](C)NC(=O)[C@H](CCCNC(=N)N)NC(=O)[C@@H]1CCCN1C(=O)[C@@H](N)Cc1ccccc1)C(C)C)[C@@H](C)O)C(=O)O`, the IC50 at HLA-B*5401 was determined as 0.059 µM; at HLA-B*5301, 0.62 µM; at HLA-B*3501, 5.54 µM; at HLA-B*5101 (B51), 0.117 µM.
Consider `CC[C@H](C)[C@H](NC(=O)[C@H](CC(C)C)NC(=O)[C@H](CC(=O)O)NC(=O)[C@H](CCC(N)=O)NC(=O)[C@H](CCSC)NC(=O)[C@H](CC(C)C)NC(=O)[C@H](CC(C)C)NC(=O)[C@H](CCCCN)NC(=O)[C@H](CCCNC(=N)N)NC(=O)[C@@H]1CCCN1C(=O)[C@@H](N)Cc1ccccc1)C(=O)O`, for which the IC50 was 0.1 µM at HLA-B*5401, 0.086 µM at HLA-B*0702, more than 10 µM on HLA-B*3501 and 0.367 µM on HLA-B*5101 (B51).
Consider `CC[C@H](C)[C@H](NC(=O)[C@H](CC(C)C)NC(=O)[C@H](CC(C)C)NC(=O)CNC(=O)[C@H](C)NC(=O)[C@H](CCCCN)NC(=O)[C@@H]1CCCN1C(=O)[C@@H](N)Cc1ccccc1)C(=O)O`, for which the IC50 on HLA-B*5301 is 0.775 µM; on HLA-B*3501, more than 10 µM; at HLA-B*5101 (B51), 0.0082 µM.
Regarding `CC[C@H](C)[C@H](NC(=O)[C@H](Cc1ccc(O)cc1)NC(=O)[C@H](CO)NC(=O)[C@@H](NC(=O)[C@H](CCC(=O)O)NC(=O)[C@@H](NC(=O)[C@H](CC(C)C)NC(=O)[C@H](C)NC(=O)[C@H](CCCNC(=N)N)NC(=O)[C@@H]1CCCN1C(=O)[C@@H](N)Cc1ccccc1)[C@@H](C)CC)[C@@H](C)O)C(=O)O` (H-FPRALIETSYI-OH; N-terminus and C-terminus assumed), the IC50 at HLA-B*5401 amounted to 0.127 µM; at HLA-B*5301, 0.465 µM; on HLA-B*0702, 0.0074 µM; at HLA-B*3501, 3.6 µM; on HLA-B*5101 (B51), 0.07 µM.
For `CSCC[C@H](NC(=O)[C@@H](NC(=O)[C@@H](NC(=O)[C@@H]1CCCN1C(=O)[C@@H](N)Cc1ccccc1)[C@@H](C)O)[C@@H](C)O)C(=O)N[C@@H](CC(N)=O)C(=O)N[C@@H](Cc1ccc(O)cc1)C(=O)N1CCC[C@H]1C(=O)N[C@@H](CC(C)C)C(=O)N[C@@H](Cc1c[nH]c2ccccc12)C(=O)O`, the results for the IC50 at HLA-B*5401, at HLA-B*0702 and on HLA-B*5101 (B51) were 0.042 µM, 0.22 µM and more than 10 µM, respectively.
Regarding `CC[C@H](C)[C@H](NC(=O)[C@H](CC(C)C)NC(=O)[C@H](C)NC(=O)[C@H](CCCNC(=N)N)NC(=O)[C@@H]1CCCN1C(=O)[C@@H](N)Cc1ccccc1)C(=O)N[C@@H](CCC(=O)O)C(=O)N[C@H](C(=O)N[C@@H](CO)C(=O)N[C@@H](Cc1ccc(O)cc1)C(=O)N[C@H](C(=O)O)C(C)C)[C@@H](C)O`, the IC50 worked out at 0.0071 µM at HLA-B*5401; 7.75 µM at HLA-B*5301; 0.0063 µM at HLA-B*0702; 4.5 µM on HLA-B*3501; 0.128 µM at HLA-B*5101 (B51).
For `CC[C@H](C)[C@H](NC(=O)[C@H](Cc1c[nH]cn1)NC(=O)[C@@H]1CCCN1C(=O)[C@@H](N)Cc1ccccc1)C(=O)N[C@@H](CO)C(=O)N[C@@H](Cc1ccc(O)cc1)C(=O)N1CCC[C@H]1C(=O)N1CCC[C@H]1C(=O)N[C@@H](CC(C)C)C(=O)O`, the IC50 on HLA-B*5401 was determined as 0.0038 µM; at HLA-B*5301 it was 0.49 µM; on HLA-B*0702 it was 0.0017 µM; on HLA-B*5101 (B51), 0.177 µM.
With `CC[C@H](C)[C@H](NC(=O)[C@H](Cc1ccccc1)NC(=O)[C@@H](NC(=O)[C@H](Cc1ccc(O)cc1)NC(=O)[C@H](CC(C)C)NC(=O)[C@H](Cc1c[nH]cn1)NC(=O)CNC(=O)[C@@H](NC(=O)[C@@H]1CCCN1C(=O)[C@@H](N)Cc1ccccc1)[C@@H](C)CC)[C@@H](C)CC)C(=O)O`, the IC50 was determined as 0.0029 µM at HLA-B*5401; 0.0085 µM on HLA-B*5301; 0.063 µM at HLA-B*0702; 0.139 µM on HLA-B*3501; 0.0057 µM on HLA-B*5101 (B51).
Consider `CC[C@H](C)[C@H](NC(=O)[C@H](Cc1ccc(O)cc1)NC(=O)[C@H](CC(C)C)NC(=O)[C@H](Cc1c[nH]cn1)NC(=O)CNC(=O)[C@@H](NC(=O)[C@@H]1CCCN1C(=O)[C@@H](N)Cc1ccccc1)[C@@H](C)CC)C(=O)N[C@@H](Cc1ccccc1)C(=O)N[C@@H](C)C(=O)O` (H-FPIGHLYIFA-OH; N-terminus and C-terminus assumed), for which the IC50 at HLA-B*5401 amounted to 0.0004 µM; at HLA-B*5301, 0.179 µM; on HLA-B*0702, 0.039 µM; on HLA-B*3501, 0.051 µM; at HLA-B*5101 (B51) it was 0.056 µM.
On to `CC[C@H](C)[C@H](NC(=O)[C@H](CC(C)C)NC(=O)[C@H](CC(C)C)NC(=O)CNC(=O)[C@@H](NC(=O)[C@H](CCCCN)NC(=O)[C@@H]1CCCN1C(=O)[C@@H](N)Cc1ccccc1)[C@@H](C)O)C(=O)O`, for which the IC50 on HLA-B*5401 is 0.037 µM; on HLA-B*5301, 3.32 µM; on HLA-B*0702, 0.134 µM; at HLA-B*3501 it was more than 10 µM; at HLA-B*5101 (B51) it was 0.016 µM.
`CC[C@H](C)[C@H](NC(=O)[C@@H](NC(=O)[C@H](CC(C)C)NC(=O)[C@H](CC(C)C)NC(=O)CNC(=O)[C@@H](NC(=O)[C@H](CCCCN)NC(=O)[C@@H]1CCCN1C(=O)[C@@H](N)Cc1ccccc1)[C@@H](C)O)[C@@H](C)CC)C(=O)O`: the IC50 on HLA-B*5401 was 0.01 µM; on HLA-B*5301 it was 0.266 µM; on HLA-B*3501 it was more than 10 µM; at HLA-B*5101 (B51), 0.032 µM.
Consider `CC[C@H](C)[C@H](NC(=O)[C@H](CO)NC(=O)[C@H](CO)NC(=O)[C@H](C)NC(=O)CNC(=O)[C@H](CCC(N)=O)NC(=O)[C@@H]1CCCN1C(=O)[C@@H](N)Cc1ccccc1)C(=O)O`, for which the IC50 at HLA-B*5401 is 0.4 µM; at HLA-B*5301, 3 µM; at HLA-B*3501 it was more than 10 µM.
Regarding `CC[C@H](C)[C@H](NC(=O)[C@@H]1CCCN1C(=O)[C@@H]1CCCN1C(=O)[C@H](Cc1ccc(O)cc1)NC(=O)[C@H](CO)NC(=O)[C@@H](NC(=O)[C@H](Cc1c[nH]cn1)NC(=O)[C@@H]1CCCN1C(=O)[C@@H](N)Cc1ccccc1)[C@@H](C)CC)C(=O)O`, the IC50 stood at 0.0014 µM at HLA-B*5401, 0.233 µM on HLA-B*5301, 0.0029 µM at HLA-B*0702 and 0.36 µM at HLA-B*3501.
On the same counts, the results for `CC[C@H](C)[C@H](NC(=O)[C@@H]1CCCN1C(=O)[C@H](Cc1ccc(O)cc1)NC(=O)[C@H](CC(N)=O)NC(=O)[C@H](CCSC)NC(=O)[C@@H](NC(=O)[C@@H](NC(=O)[C@@H]1CCCN1C(=O)[C@@H](N)Cc1ccccc1)[C@@H](C)O)[C@@H](C)O)C(=O)O` are 0.0015 µM, 0.0085 µM, 0.059 µM and 0.022 µM.
Turning to `CC[C@H](C)[C@H](NC(=O)[C@H](CO)NC(=O)[C@H](CCC(N)=O)NC(=O)[C@H](CO)NC(=O)[C@H](Cc1c[nH]c2ccccc12)NC(=O)[C@H](CC(C)C)NC(=O)[C@@H]1CCCN1C(=O)[C@@H](N)Cc1ccccc1)C(=O)O`, the IC50 at HLA-B*5401 is 0.015 µM; on HLA-B*5301 it was 0.245 µM; on HLA-B*0702 it was 0.122 µM; at HLA-B*3501, 1.01 µM.
For the compound `CC[C@H](C)[C@H](NC(=O)[C@@H](NC(=O)[C@H](Cc1ccc(O)cc1)NC(=O)[C@H](CC(C)C)NC(=O)[C@H](Cc1c[nH]cn1)NC(=O)CNC(=O)[C@@H](NC(=O)[C@@H]1CCCN1C(=O)[C@@H](N)Cc1ccccc1)[C@@H](C)CC)[C@@H](C)CC)C(=O)O`, the IC50 on HLA-B*5401 came out at 0.0006 µM; at HLA-B*0702 it was 0.0034 µM; at HLA-B*3501, 0.077 µM; on HLA-B*5101 (B51) it was 0.005 µM.
In the case of `CC[C@H](C)[C@H](NC(=O)[C@H](CC(C)C)NC(=O)[C@@H](NC(=O)[C@H](Cc1ccc(O)cc1)NC(=O)[C@H](CC(C)C)NC(=O)[C@H](Cc1c[nH]cn1)NC(=O)[C@H](CO)NC(=O)[C@@H](NC(=O)[C@@H]1CCCN1C(=O)[C@@H](N)Cc1ccccc1)[C@@H](C)CC)[C@@H](C)CC)C(=O)O`, the IC50 on HLA-B*5401 worked out at 0.0026 µM; on HLA-B*5301, 0.0049 µM; on HLA-B*0702, 0.097 µM; at HLA-B*5101 (B51), 0.013 µM.
The like results for `CC[C@H](C)[C@H](NC(=O)[C@@H](NC(=O)[C@H](Cc1ccc(O)cc1)NC(=O)[C@H](CC(C)C)NC(=O)[C@H](Cc1c[nH]cn1)NC(=O)[C@H](CO)NC(=O)[C@@H](NC(=O)[C@@H]1CCCN1C(=O)[C@@H](N)Cc1ccccc1)[C@@H](C)CC)[C@@H](C)CC)C(=O)O` were, in that order, 0.0006 µM, 0.0044 µM, 0.0029 µM and 0.0042 µM.
